This is an account of results in EP0689844A1, “Complexes of vinpocetine formed with cyclodextrins, process for their preparation and pharmaceutical compositions containing them” (TECNIMEDE-SOCIEDADE TECNICO-MEDICINAL, S.A., priority 1994, dated 1996).

Values after ≈ are worked out from the molar mass of the structure shown. Like-named read-outs stand apart in the source and are kept apart here.

Data set [1] can be described thus: solubility of vinpocetine in cyclodextrin solutions of different concentrations (phase solubility, HPLC). Conditions: aqueous cyclodextrin solution, 37 °C, aqueous with cosolvent or surfactant or cyclodextrin, thermodynamic from solid. The data set is classed as physicochemical. The protocol: 10 mg of vinpocetine, cyclodextrin in different amounts and 10 ml of distilled water were charged into 20 ml test tubes. After closing, the tubes were agitated for 24 hours at 37°C, thereafter the samples were filtrated and the filtrates were analysed by HPLC (High Performance Liquid Chromatography) in 0.1N HCl solution.

The conditions of data set [2]: cited from earlier work.
For data set [3] the following is noted: p.o.; cited from earlier work.

For the molecule `CCOC(=O)C1=C[C@]2(CC)CCCN3CCc4c(n1c1ccccc41)[C@@H]32` [vinpocetine, eburnamenine-14-carboxylic acid ethyl ester], the solubility (commonly the concentration that dissolves in the medium under given conditions) at 24 h in data set [1] (HP-β-cyd 25.0 mM in distilled water) was 5.5 µg/mL (≈ 15.7 µM); in data set [1] (HP-β-cyd 50.0 mM in distilled water), 12.8 µg/mL (≈ 36.5 µM); in data set [1] (HP-β-cyd 100.0 mM in distilled water), 23.2 µg/mL (≈ 66.2 µM); in data set [1] (γ-cyd 12.5 mM in distilled water), 6.1 µg/mL (≈ 17.4 µM); in data set [1] (γ-cyd 25.0 mM in distilled water) it was 12 µg/mL (≈ 34.2 µM); in data set [1] (γ-cyd 50.0 mM in distilled water), 24.4 µg/mL (≈ 69.6 µM). In addition, the solubility entry in data set [2] (in ethanol and 0.1N HCl) is reported as “dissolves well”; in data set [2] (in water, ethyl ether and hexane) it was “poorly soluble”. Besides, the absolute bioavailability in data set [3] is reported as 6.7%.
